Row | SMILES | melting point
1 | NCC(=O)Nc1ccc(Cl)cc1C(=NCCO)c1ccccc1F | 128 to 132 °C
2 | CCOC(=O)c1cncc(C(=O)O)c1 | 180 to 182 °C
3 | COc1ccc(OC)c2c1Cc1c([nH]cnc1=O)N2 | > 300 °C
4 | CC1(COc2ccc([N+](=O)[O-])cc2)CC(=O)c2cc(O)c(C(C)(C)C)cc2O1 (configuration not stated) | 205 to 209 °C
5 | CCCCOc1ccccc1C1=NC(=O)C2=NC=NC2=N1 | 247 to 248 °C
6 | NCCCOc1ccc(OCc2ccccc2)cc1 | 115 °C
7 | CC(C)N1CN(C(=O)c2c(F)cccc2F)C(=O)N(c2ccc(Cl)cc2)C1 | 130 to 131 °C
8 | Nc1ccc(NCCNS(=O)(=O)c2ccccc2)cc1 | 144 °C
9 | CC(C)C1(C)N=C(c2nc3ccsc3cc2C(=O)O)NC1=O (configuration not stated) | 242 to 244 °C
10 | COc1ccc(C(=O)[C@H]2C[C@H]2C(=O)O)cc1 (relative stereo) | 170 to 172 °C
11 | CCN1C(=O)C(C)(C)C(=O)N(C)c2cc(CN(CCn3ccc4oc(C)cc4c3=O)Cc3ccnnc3)ccc21 | 137 to 141 °C
12 | Cc1onc(-c2ccccc2)c1-c1[nH]c2ccccc2c1CCCN(C)C | 156 to 157 °C
13 | COC(=O)/C=C/c1occc(=O)c1OCC(=O)OC(C)(C)C | 115 to 116 °C
14 | CCCCCn1c2ccccc2c2cc(C(=O)NN3CCCCC3)ccc21 | 158 to 159 °C
15 | Cc1c(SCc2ccco2)ccnc1CSc1nc2ccccc2n1CCN(C)C | 87 to 89 °C
16 | CCC(C)(OCc1nn(Cc2ccccc2)c2ccccc12)C(=O)O (configuration not stated) | 66 to 67 °C
17 | COc1ccc(C(=O)Nc2c(Cl)cncc2Cl)cc1OCCCCCCCCCCCc1ccccc1 | 114 to 115 °C
18 | COc1cc(CCCOc2c(CC(=O)O)cccc2OC)n(Cc2ccc(Cl)cc2Cl)n1 | 111 to 112 °C
19 | Cc1ccc(S(=O)(=O)NC(=O)c2cc(Oc3ccc(C(F)(F)F)cc3Cl)ccc2[N+](=O)[O-])cc1 | 150 °C
20 | Nc1ncc2ncn([C@@H]3C[C@H](O)[C@@H](O)[C@H]3O)c2n1 (racemic) | 153 to 155 °C
21 | CCOc1cc2nc(NC)nc(-c3cccc(Br)c3)c2cc1OCC | 130 to 132 °C
22 | CCS(=O)c1ccc(-c2coc3ccc(-c4nnc(C)o4)cc23)cc1F (configuration not stated) | 187 to 188 °C
23 | CN(c1cccc2cc(C3=NCC(C(C)(C)O)S3)[nH]c12)S(=O)(=O)c1cccs1 (configuration not stated) | 174 to 175 °C

Row | SMILES | melting point
24 | Clc1ccc(I)cc1CBr | 94 to 95 °C
25 | CCCCCCCCCCCCCCOc1ccccc1NC(=O)c1cc(Sc2nnnn2-c2cccc(C(=O)O)c2)c2ccccc2c1O | 136 to 138 °C
26 | O=[N+]([O-])c1c(Cl)c(Cl)cc2nc(Cl)c(Cl)nc12 | 118 to 120 °C
27 | CCC(CC)OCc1c(-c2ccc(OC(F)F)c(OC3CC3)c2)[nH]c2cn[nH]c(=O)c12 | 133 to 162 °C
28 | COc1ccc(C(C)N(C)CCCOc2ccc(S(=O)(=O)C3=C(C(C)C)N(C)CC3)cc2)cc1OC (configuration not stated) | 100 to 102 °C
29 | Cc1ccc2sc3cc(C(C)(C)[N+](=O)[O-])ccc3c(=O)c2c1 | 170 to 173 °C
30 | Cc1ncn(Nc2ccccc2)c1C | 178 °C
31 | CC(=O)Nc1ccc(OCCOCCO)cc1 | 94 °C
32 | CN(C)S(=O)(=O)n1c(C(=S)NC(O)C(Cl)(Cl)Cl)nc2cc(Cl)c(Cl)cc21 (configuration not stated) | 158 to 160 °C
33 | COc1ccc(NN=C(Sc2cc(Cl)cc(Cl)c2)C(C)=O)cc1 | 168 to 170 °C
34 | COC(=O)c1cc(/C=N/O)ccc1[N+](=O)[O-] | 116 °C
35 | Cc1oc(-c2ccccc2)nc1CCOc1ccc(C=C2SC(=O)NC2=O)cc1 | 213 to 214 °C
36 | CC(=O)c1cc(N(C)C)ccc1NC(=O)c1ccc(OCc2ccccc2)cc1 | 139 to 140 °C
37 | O=S(=O)(NCc1ccccc1)c1cccc(-c2cc(-c3nc(-c4ccc(C(F)(F)F)cc4)cc(C(F)(F)F)n3)ccn2)c1 | 202 °C
38 | Oc1c(Cl)cc(-c2cnn3c(O)ncnc23)cc1Cl | > 300 °C
39 | C=Cc1cc(CNC(=O)Nc2ccc(C(C)(C)C)cc2)cc(F)c1NS(C)(=O)=O | 167 to 170 °C
40 | Clc1ccc(OCc2ccccc2)c(OCC2CO2)c1Cl (configuration not stated) | 59 to 61 °C
41 | N#Cc1c(N2CCN(C(=O)c3cccs3)CC2)c2cc(Cl)ccc2n(Cc2ccc(F)cc2)c1=O | 253 °C
42 | COCC1OC(n2c(Cl)nc3cc(Cl)c(Cl)cc32)C(O)C1O (configuration not stated) | 104 to 105 °C
43 | Cn1c(N)c(C#N)c(Cl)c1C=O | 282 to 285 °C
44 | COc1ccc(Cn2c(=O)[nH]c3ccc(C(=O)NCc4ccc5c(c4)OCO5)cc3c2=O)cc1 | 252 °C
45 | CCOC(=O)CSc1nc(Cl)cc(NCCc2ccc(Cl)cc2)n1 | 68 to 70 °C
46 | CCCSc1nc(NC2CC2c2ccc(OC)c(C)c2)c2nnn(C3CC(O)C(O)C3O)c2n1 (configuration not stated) | 135 to 136 °C

Row | SMILES | melting point
47 | COC(C(=O)Nc1cc(Cl)cc(Cl)c1)C(=O)OC(C)(C)C (configuration not stated) | 130 to 132 °C
48 | Cc1ccc(C2=CCCNC2)nc1C | 102 to 104 °C
49 | C=CCOc1cccc2c1ONC(=O)C2 | 174 to 175 °C
50 | Cc1cc(C)c(Nc2nc(C)ncc2S(=O)(=O)c2ccc(C3=NCCN3)cc2)c(C)c1 | 240 to 242 °C
51 | CCC1Nc2cc(F)c(F)cc2-n2cccc21 (configuration not stated) | 67 to 69 °C
52 | CCCCc1ccc(CC(N)C(=O)O)cc1 (configuration not stated) | 218 to 223 °C
53 | O=C(O)C1CN(C(=O)N(c2ccccc2)c2ccccc2)CCN1C(=O)N(c1ccccc1)c1ccccc1 (configuration not stated) | 244 to 246 °C
54 | Cc1cc(SC2=C(O)CC(CCc3ccncc3)(C(C)C)OC2=O)c(C(C)(C)C)cc1CO (configuration not stated) | 140 to 155 °C
55 | CC(C(=O)O)c1ccc2c(c1)Sc1ncccc1CC2 (configuration not stated) | 161 to 162 °C
56 | Cc1cc(C)c2c(c1O)CCC2=O | 152 to 154 °C
57 | Cc1cc(C(=O)NN)ccc1Br | 164 to 166 °C
58 | Cc1nc(N2CCN(Cc3ccc(F)cc3)C2=O)sc1C(=O)NCc1ccncc1 | 146 to 149 °C
59 | CC(O)C#Cc1ccc(Cl)cc1 (configuration not stated) | 71 to 72 °C
60 | CCOc1ccc2c(c1)CCC(Oc1ncnc3ccccc13)C2 (configuration not stated) | 115 to 117 °C
61 | Cc1[nH]c(C(=O)SCC(=O)O)nc1-c1cc(C(C)(C)C)c(O)c(C(C)(C)C)c1 | 252 to 254 °C
62 | COCCNc1ccc(S(=O)(=O)Oc2ccc(N)c([N+](=O)[O-])c2)cc1 | 105 °C
63 | NC(=O)C1c2ccccc2-c2ccccc21 | 250 °C
64 | CCc1nc(C)[nH]c1I | 156 to 159 °C
65 | CCCc1nc2c(C)cc(C)nc2n1C1CCc2cc(-c3ccccc3-c3nnn[nH]3)ccc21 (configuration not stated) | 173 °C
66 | c1ccc2c(c1)NCCc1nccn1-2 | 119 to 122 °C
67 | COc1ccc(C(N)CCO)cc1OC (configuration not stated) | 63.5 to 65.5 °C

Continued, values first:

Row | melting point | SMILES
68 | 226 °C | Cc1nc2c3c(ccc2n1C)[C@@H](OCCF)[C@H](O)[C@@H](c1ccccc1)O3
69 | 208 °C | COc1c(N2CCC(n3ccnn3)C2)c(F)c(N)c2c(=O)c(C(=O)O)cn(C3CC3)c12 (configuration not stated)
70 | 198 °C | CCc1nc(C2CC2)c(C(=O)O)n1Cc1ccc2oc(-c3ccccc3-c3nnn[nH]3)c(Br)c2c1
71 | 176 to 177 °C | COc1cc(Nc2nccc(-c3ccc(NCCC4CCCN4C)nc3)n2)cc(OC)c1OC (configuration not stated)
72 | 78 to 82 °C | C=CCc1cc(C(=O)OC)ccc1O
73 | 166 to 168 °C | COc1cc(CN2CCN(C(=O)c3ccc4c(c3)C(=O)c3ccccc3-4)CC2)cc(OC)c1OC
74 | 116 to 118 °C | Cc1cc(C)c2cccc(OCc3c(Cl)ccc(S(=O)(=O)N4CCC[C@H]4C(=O)NCc4cccc(C(N)=S)c4)c3Cl)c2n1
75 | 179 to 180 °C | O=C(NC(=O)c1ccccc1)NC1CCN(Cc2ccccc2)CC1
76 | > 250 °C | CCc1nc2c(N)nc3cccnc3c2n1CC1(O)CCOCC1
77 | 93 to 99 °C | COc1cc(N2CCCN(C[C@H](O)CO)CC2)ccc1Nc1ncc2ccc(-c3ccccc3OC)n2n1
78 | 110 °C | CON=CCNC(=O)c1c(I)cccc1C(=O)Nc1ccc(C(F)(F)C(F)(F)F)cc1C
79 | 276 to 277 °C | O=C(O)c1cccc(-c2cc(-c3ccc(C(F)(F)F)cc3)on2)c1
80 | 113 to 115 °C | C=C(C)COCC(C)C1CC=C2C3=C(CCC21C)C1(C)CCC(O)C(C)(C)C1CC3 (configuration not stated)
81 | 117 to 119 °C | O=C(O)c1cc2cccc(OCC3CO3)c2o1 (configuration not stated)
82 | 112 to 114 °C | CCOC(=O)N1CCC(Nc2ccc(Cl)cc2C(=O)c2ccccc2F)CC1
83 | 213 to 214 °C | Cc1c(Cl)cccc1S(=O)(=O)Nc1ccc2nc(C)n(CCO)c2c1
84 | 288 to 289 °C | CC1(C)Oc2ccc(C#N)cc2[C@@H](NC2=C(Cl)C(=O)CC2)[C@@H]1O (relative stereo)
85 | 223 to 224 °C | COC(=O)c1cn(C2CC2)c2cc(F)c(F)cc2c1=O
86 | 258 to 260 °C | Cc1c(NC(=O)c2ccc(-c3ccc(F)cc3)cc2)ccc2cc(CN3CCC(CC(N)=O)CC3)cnc12
87 | 114 to 115 °C | CCC(=O)NCC1CC1c1cccc2nn(CC)cc12 (configuration not stated)
88 | 98 to 105 °C | CN(C)Cc1ccc(NC(=O)Nc2ccc(Oc3cc(Cl)ncn3)cc2)cc1C(F)(F)F
89 | 205 to 207 °C | NC(=O)C1CCc2cc(C(=O)c3ccccc3)c(O)cc21 (configuration not stated)
90 | 140 to 142 °C | COC(=O)Nc1ccc(NC(=O)CN(C)C)c(N)c1
91 | 190 to 193 °C | CCCCn1c(C)cc(=O)c(C(=O)Nc2ccccc2)c1-c1ccccc1
92 | 91 to 97 °C | CC(C)CC(NC(=O)C(Cc1c[nH]cn1)NC(=O)C(CC(=O)N1CCCCC1)Cc1cccc2ccccc12)C(O)C(=O)OC(C)C (mixture of isomers)
93 | 113 °C | Cn1nc(Sc2cc(C(F)(F)F)ccc2C#N)n(C)c1=O
94 | 179 °C | O=C(NC1CCC(CCN2CCC(c3cccc4c3CCO4)CC2)CC1)C(O)C(F)(F)F (racemic)
95 | 191 to 193 °C | CC(=O)Nc1ccc(Sc2c(-c3ccc(S(C)(=O)=O)cc3)cnn(CC(F)(F)F)c2=O)cc1
96 | 96 to 96.5 °C | COC(=O)C(CCn1c(C(=O)c2ccccc2)cc(Br)c1Br)C(=O)OC
97 | 239 °C | NS(=O)(=O)c1cc2c(c(C(=O)N3CCN(c4ncccn4)CC3)c1)OCCO2

— a melting point compilation (Tetko et al.; mined from patent text by program, amines drawn as free bases though some values may be those of a salt)
